A short description of data set [1]: Measurement of critical micelle concentration (CMC) with CMC assay kit. The format is physicochemical. The method, then: (§1) For the IMCTA-C8, IMCTA-C9, IMCTA-C10, IMCTA-C11, IMCTA-C12, IMCTA-C13, IMCTA-C14, and IMCTA-C15 (IMCTA-Cn) that were obtained in synthesis examples 1 to 8 and for n-dodecyl-β-D-maltoside (DDM) as control, “critical micelle concentration (CMC)”, “micelle size”, and “Hydrophilic-Lipophilic Balance (HLB) value” were measured or calculated in the following manner.
CMC was measured with a Detergent Critical Micelle Concentration (CMC) Assay Kit (CMC1000, manufactured by ProFoldin) according to the product protocol.

The nature of data set [2]: Measurement of micelle size by dynamic light scattering. The class given is physicochemical. The protocol: as §1
Micelle sizes were measured by dynamic light scattering with Zetasizer Nano S (manufactured by Malvern Panalytical).

Data set [3] deals with human ovarian cancer cells OVK18 and human malignant melanoma cells Mewo. Nature of the data set: Autophagy inducing effect on cultured cells (western blotting of autophagy-related proteins). The format is cell-based. To be noted: for accumulation of PCD (precursors of cathepsin D) / concentration giving same or higher LC3-II expression, relative to trehalose / p62 / pAkt / phosphorylation of p70 S6K: 24 hours; for expression of LC3-II (autophagy marker): 24 hours treatment, western blotting. The method, then:
Expression and phosphorylation patterns of autophagy-related proteins when human ovarian cancer cells or human malignant melanoma cells were treated with 4-trehalosamine and trehalose analog for 24 hours were determined by western blotting.
Human ovarian cancer cells OVK18 (obtained from RIKEN BRC) and human malignant melanoma cells Mewo (JCRB0066) were each inoculated on a 12-well microplate at 8×10^4 cells/mL/well and cultured in DMEM culture medium at 37° C. for 72 hours, after which they were treated with test samples.
The test samples used were the 4-trehalosamine (4TA) obtained in the <Purification process> of production example 10, trehalose (TRH), the IMCTA-Cn compounds obtained in synthesis examples 1 to 8, trehalose ester (TRH-Cn) (manufactured by Dojindo Laboratories), n-dodecyl-β-D-maltoside (DDM), maltose (MLT), sucrose (SCR), and rapamycin (RM). Untreated cells without addition of compounds were used as control.
In treatment with the test samples, in order to avoid contact of a compound with locally high concentration with cells, a half of the culture fluid in each well was taken, and a required amount of test sample was dissolved in it. After dissolving it sufficiently, it was returned to the original well and treated at 37° C. for 24 hours.
Subsequently, culture medium containing the test samples was removed, washed once with PBS, and dissolved with 2×SDS sample buffer not containing 2-mercaptoethanol (2-ME) or bromphenol blue (BPB). After measuring the protein concentration in the dissolved sample with a BCA protein assay kit (manufactured by Thermo Fisher Scientific), 2-ME and BPB were added and the sample was boiled for 5 minutes, which was used as a sample for western blotting.
The western blotting was performed in a similar manner to test example 4 except that anti-LC3 antibody, which is a marker for autophagy, anti-p62, anti-cathepsin D antibody, anti-Phospho-Akt (Ser473) antibody, anti-Akt antibody, anti-Phospho-p70 S6K (T389) antibody, and anti-p70 S6K antibody (all manufactured by Cell Signaling Technology) were used at 1/2,000 dilution as the primary antibodies in the method described in test example 4.
The results for human ovarian cancer cells OVK18 are shown in FIGS. 20A to 20C, and the results for human malignant melanoma cells Mewo are shown in FIGS. 20D to 20F. In FIGS. 20A, 20B, 20D, and 20E, “PCD” denotes precursors of cathepsin D and “CD-HC” denotes cathepsin D heavy chain.
For orientation: Immunoblotting shows a protein as a band on a membrane.

The test system of data set [4] is Mycobacterium smegmatis mc^2 (ATCC 700084). Put plainly: Staining of mycobacterium with IMCTA-fluorescein, IMCTA-biotin or IMCTA-azide. The format is cell-based. To be noted: for ingestion into bacterial cells and fluorescence (staining): 10 μg/mL IMCTA-fluorescein, 30 μg/mL IMCTA-biotin, 10 μg/mL IMCTA-azide, 37° C., 8 hours; for ingestion in the presence of sucrose (blocking): sucrose 1% or 3%.

Each structure is given as a SMILES string.

In data set [1], `CCCCCCCCCCCCO[C@@H]1O[C@H](CO)[C@@H](O[C@H]2O[C@H](CO)[C@@H](O)[C@H](O)[C@H]2O)[C@H](O)[C@H]1O` [DDM, n-dodecyl-β-D-maltoside, reference compound] gave a CMC of 0.23 mM. In data set [2], this molecule displayed a Micelle size of 6.1 ± 0.1 nm.

For `CCCCCCCCN[C@@H]1C(CO)O[C@H](O[C@H]2OC(CO)[C@@H](O)C(O)C2O)C(O)C1O` (some centres unmarked) [IMCTA-C8], the CMC in data set [1] was found to be 8.02 mM. Further, the Micelle size in data set [2] came to 4.3 ± 1.7 nm.

For the molecule `CCCCCCCCCN[C@@H]1C(CO)O[C@H](O[C@H]2OC(CO)[C@@H](O)C(O)C2O)C(O)C1O` (some centres unmarked) [IMCTA-C9], the CMC in data set [1] turned out to be 3.84 mM. In data set [2], the Micelle size stood at 5.5 ± 1.3 nm.

`CCCCCCCCCCN[C@@H]1C(CO)O[C@H](O[C@H]2OC(CO)[C@@H](O)C(O)C2O)C(O)C1O` (some centres unmarked) [IMCTA-C10] gave a CMC in data set [1] of 2.67 mM. Also, in data set [2], the Micelle size was found to be 5.9 ± 1.8 nm.

Molecule `CCCCCCCCCCCN[C@@H]1C(CO)O[C@H](O[C@H]2OC(CO)[C@@H](O)C(O)C2O)C(O)C1O` (some centres unmarked) [IMCTA-C11] had a CMC in data set [1] of 0.96 mM. Besides, in data set [2], the Micelle size stood at 15.9 ± 6.5 nm.

`CCCCCCCCCCCCN[C@@H]1C(CO)O[C@H](O[C@H]2OC(CO)[C@@H](O)C(O)C2O)C(O)C1O` (some centres unmarked) [IMCTA-C12]: the CMC in data set [1] was 0.58 mM. In data set [2], this molecule showed a Micelle size of 13.7 ± 6.4 nm.

Take `CCCCCCCCCCCCCN[C@@H]1C(CO)O[C@H](O[C@H]2OC(CO)[C@@H](O)C(O)C2O)C(O)C1O` (some centres unmarked) [IMCTA-C13]: the CMC in data set [1] amounted to 0.24 mM. The same molecule yielded a Micelle size in data set [2] of 17.3 ± 10.9 nm. Further, in data set [3], the “accumulation of PCD (precursors of cathepsin D)” value is recorded as “no accumulation of PCD was observed”; the “concentration giving same or higher LC3-II expression, relative to trehalose” value is reported as “several thousand times lower than trehalose”; the p62 entry is “accumulation trend of p62”; the pAkt result is “decreasing trend of pAkt”. In addition, in data set [3], the “phosphorylation of p70 S6K” value was “p70 S6K was not dephosphorylated” and the “expression of LC3-II (autophagy marker)” value was “particularly strong expression”.

In data set [1], `CCCCCCCCCCCCCCCN[C@@H]1C(CO)O[C@H](O[C@H]2OC(CO)[C@@H](O)C(O)C2O)C(O)C1O` (some centres unmarked) [IMCTA-C15] returned a CMC of 0.06 mM. The Micelle size in data set [2] is 92.5 ± 49 nm. Further, in data set [3], the “accumulation of PCD (precursors of cathepsin D)” value was “no accumulation of PCD was observed”; the “concentration giving same or higher LC3-II expression, relative to trehalose” value was “several thousand times lower than trehalose”; the p62 entry is reported as “accumulation trend of p62”; the pAkt entry was “decreasing trend of pAkt”. Moreover, in data set [3], the “phosphorylation of p70 S6K” value is recorded as “p70 S6K was not dephosphorylated” and the “expression of LC3-II (autophagy marker)” value is recorded as “particularly strong expression”.

As for `[N-]=[N+]=N[C@@H]1C(CO)O[C@H](O[C@H]2OC(CO)[C@@H](O)C(O)C2O)C(O)C1O` (some centres unmarked) [IMCTA-azide, 4-azide-4-deoxy-trehalose], in data set [4], the “ingestion into bacterial cells and fluorescence (staining)” value is “ingested into Mycobacterium smegmatis bacterial cells and emitted fluorescence”; the “ingestion in the presence of sucrose (blocking)” value is reported as “suppression of ingestion was observed”. The “fluorescence strength compared among labelers” value in data set [4] (same amount of labeler) is given as “strongest fluorescence”. Moreover, the “ingestion in the presence of trehalose (blocking)” value in data set [4] (trehalose 1% or 3%) is “suppression of ingestion was observed”.

On to `O=C(CCCC[C@@H]1SC[C@@H]2NC(=O)N[C@@H]21)N[C@@H]1C(CO)O[C@H](O[C@H]2OC(CO)[C@@H](O)C(O)C2O)C(O)C1O` (some centres unmarked) [IMCTA-biotin], for which, in data set [4], the “ingestion into bacterial cells and fluorescence (staining)” value is “ingested into Mycobacterium smegmatis bacterial cells and emitted fluorescence”; the “ingestion in the presence of sucrose (blocking)” value is “some suppression of ingestion by sucrose”. Moreover, the staining pattern entry in data set [4] (fluorescence microscope) is on record as “patch-like staining pattern”.

For the origin of these results see US20250002954A1, “Novel Compound, Use Thereof, and Method for Producing Same, and Compound-Containing Composition, Method for Producing 4-Trehalosamine, and Microorganism” (Microbial Chemistry Research Foundation, priority 2021, published 2025).
